Reference: US4885310A, “Anti-fungal methods and agent” (Kern; Gerald N., priority 1985, dated 1989)

Tests used:
mycoses = conditions: cited from earlier work
Penicillium = test: Inhibition of fungal growth on potato dextrose agar plates, Penicillium; type: cell-based
Procedure: (§1) FIG. 1 is a photograph of fungal cultures of Scopulariopsis, Penicillium and Aspergillus treated with various concentrations of docusate sodium from 0 concentration (the control) to 2.0 mg/ml and incubated for five days at room temperature. The nature of fungal growth required that a different experimental approach from that of Example 10 be used to determine the growth inhibition effects of docusate sodium on fungi. For these experiments potato dextrose agar plates containing different concentrations of docusate sodium were inoculated in the center of the agar with Scopulariopsis, Penicillium and Aspergillus. The cultures were then sealed with […] brand film and incubated at room temperature for five days. Since growth could not be measured by absorbance visual comparisons were made. […] Similar tests were conducted with Mucor.

[1] = tested on: primary fibroblasts from human foreskin; test: Cytotoxicity of docusate sodium in solutions free of serum, foreskin fibroblasts; type: cell-based; design: key: 0: Cells had normal morphology; 4+: > 90% of cells showed CTE; conditions: 24 h, 37° C.
Procedure: (§2) The cell lines used to evaluate cytotoxicity of docusate sodium were MA-104 derived from monkey kidneys, HeLa derived from human uterine carcinoma and primary fibroblasts from human foreskin. The cells were grown to confluency in 60×15 mm dishes. The cell monolayers were washed free of growth medium and 5 ml of serum-less growth medium containing docusate sodium at various concentrations was added. The cultures were incubated 24 hours at 37° C. and the cells then examined microscopically for cytotoxic effects (CTE). Controls were done in the same manner except that they were not exposed to docusate sodium.
(§3) Table 1 lists the cytotoxicity of docusate sodium with regard to selected cell lines in cell culture.

[2] = cited from earlier work
[3] = tested on: foreskin fibroblast cells; test: Cytotoxicity of docusate sodium in solutions containing serum, foreskin fibroblasts; type: cell-based, human; design: key: 0: Cells have normal morphology; 4+: > 90% of cells showed CTE.; ±c: less than 10% of cells showed CTE; conditions: 2% fetal calf serum, 24 h
Procedure: as §2
(§4) The same procedure that was used for Example 8 was used for this example except that the medium used for growing the cells contained 2% by volume fetal calf serum.
(§5) Table 2 lists the cytotoxic effect of docusate sodium at various concentrations in selected cell lines in the cell cultures of this Example.

Aspergillus = test: Inhibition of fungal growth on potato dextrose agar plates, Aspergillus; type: cell-based
Procedure: as §1

HeLa [4] = test: Cytotoxicity of docusate sodium in solutions containing serum, HeLa; type: cell-based, human; design: key: 0: Cells have normal morphology; 4+: > 90% of cells showed CTE.; ±c: less than 10% of cells showed CTE; conditions: 2% fetal calf serum, 24 h
Procedure: as §2, §4, §5

Candida albicans = test: Inhibition of the growth of Candida albicans in broth culture; type: cell-based; conditions: TSB, 30° C.
Procedure: Candida albicans is a yeast and is the causative agent of thrush in humans and is a cause of vaginal infections, urinary tract infections, and infections at other body sites. The growth inhibition effects of docusate sodium on C. albicans are determined in broth culture using trypticase soy broth (TSB) which is a medium which supports growth of a wide variety of microorganisms. TSB was sterilized by autoclaving and filter sterilized docusate sodium in distilled water was added to the sterile TSB at the concentrations shown in Table 3. The cultures were inoculated and incubated at 30° C. for 72 hours. Growth in the cultures was checked at 24 hour intervals.

HeLa [5] = test: Cytotoxicity of docusate sodium in solutions free of serum, HeLa; type: cell-based, human; design: key: 0: Cells had normal morphology; 4+: > 90% of cells showed CTE; conditions: 24 h, 37° C.
Procedure: as §2, §3

MA-104 [6] = test: Cytotoxicity of docusate sodium in solutions free of serum, MA-104; type: cell-based, monkey; design: key: 0: Cells had normal morphology; 4+: > 90% of cells showed CTE; conditions: 24 h, 37° C.
Procedure: as §2, §3

MA-104 [7] = test: Cytotoxicity of docusate sodium in solutions containing serum, MA-104; type: cell-based, monkey; design: key to cytotoxic effect (CTE): 0: Cells have normal morphology; 4+: > 90% of cells showed CTE.; ±c: less than 10% of cells showed CTE; conditions: for cytotoxic effect (CTE): 24 h, MA-104
Procedure: as §2, §4, §5

Scopulariopsis = test: Inhibition of fungal growth on potato dextrose agar plates, Scopulariopsis; type: cell-based
Procedure: as §1

Mucor = test: Inhibition of fungal growth, Mucor; type: cell-based; conditions: all concentrations tested
Procedure: The nature of fungal growth required that a different experimental approach from that of Example 10 be used to determine the growth inhibition effects of docusate sodium on fungi. For these experiments potato dextrose agar plates containing different concentrations of docusate sodium were inoculated in the center of the agar with Scopulariopsis, Penicillium and Aspergillus. The cultures were then sealed with PARAFILM brand film and incubated at room temperature for five days. Since growth could not be measured by absorbance visual comparisons were made. […] The results to date indicate that docusate sodium is fungistatic. […] Similar tests were conducted with Mucor.

[8] = use as food additive and stool softening agent; cited from earlier work

Compound: COC1=CC(=O)C[C@@H](C)[C@]12Oc1c(Cl)c(OC)cc(OC)c1C2=O [griseofulvin]
- effectiveness against mycoses (mycoses; requires prolonged administration of weeks or months): effective only for superficial and subcutaneous mycoses

Compound: CCCCC(CC)COC(=O)CC(C(=O)OCC(CC)CCCC)S(=O)(=O)O (centres unmarked) [docusate sodium, 1,4 bis(2-ethylhexyl) sodium sulfosuccinate]
- relative sensitivity of fungus (Penicillium; Penicillium versus Aspergillus and Scopulariopsis): least sensitive
- growth inhibition (Penicillium; all concentrations up to 2.0 mg/ml, five days, room temperature, Penicillium): growth of fungi was inhibited at all concentrations
- toxicity (CTE) ([1]; 0.01 mg/ml): 0
- toxicity (CTE) ([1]; 0.05 mg/ml): 4+ (> 90% of cells showed CTE.)
- toxicity (CTE) ([1]; 0.1 mg/ml): 4+ (> 90% of cells showed CTE.)
- toxicity (CTE) ([1]; 0.2 mg/ml): 4+ (> 90% of cells showed CTE.)
- solubility in organic solvents ([2]; organic solvents such as alcohol): freely soluble
- solubility in water ([2]; water): slowly soluble in water to a limited extent
- cytotoxic effect (CTE) ([3]; 0.01 mg/ml): 0
- cytotoxic effect (CTE) ([3]; 0.02 mg/ml): ±c (less than 10% of cells showed CTE.)
- cytotoxic effect (CTE) ([3]; 0.03 mg/ml): 4+ (> 90% of cells showed CTE.)
- cytotoxic effect (CTE) ([3]; 0.04 mg/ml): 4+ (> 90% of cells showed CTE.)
- relative sensitivity of fungus (Aspergillus; Aspergillus versus Penicillium): more sensitive
- growth inhibition (Aspergillus; all concentrations up to 2.0 mg/ml, five days, room temperature, Aspergillus): growth of fungi was inhibited at all concentrations
- cytotoxic effect (CTE) (HeLa [4]; 0.02 mg/ml): 0
- cytotoxic effect (CTE) (HeLa [4]; 0.03 mg/ml): ±c (less than 10% of cells showed CTE.)
- cytotoxic effect (CTE) (HeLa [4]; 0.04 mg/ml): 4+ (> 90% of cells showed CTE.)
- Growth recorded as absorbance at 540 nm (Candida albicans; 0.06 mg/ml, 0 h): 0.185
- Growth recorded as absorbance at 540 nm (Candida albicans; 0.06 mg/ml, 24 h): 0.610
- Growth recorded as absorbance at 540 nm (Candida albicans; 0.06 mg/ml, 48 h): 1.10
- Growth recorded as absorbance at 540 nm (Candida albicans; 0.06 mg/ml, 72 h): 0.920
- Growth recorded as absorbance at 540 nm (Candida albicans; 0.12 mg/ml, 0 h): 0.230
- Growth recorded as absorbance at 540 nm (Candida albicans; 0.12 mg/ml, 24 h): 0.440
- Growth recorded as absorbance at 540 nm (Candida albicans; 0.12 mg/ml, 48 h): 0.700
- Growth recorded as absorbance at 540 nm (Candida albicans; 0.12 mg/ml, 72 h): 0.950
- Growth recorded as absorbance at 540 nm (Candida albicans; 0.25 mg/ml, 0 h): 0.220
- Growth recorded as absorbance at 540 nm (Candida albicans; 0.25 mg/ml, 24 h): 0.345
- Growth recorded as absorbance at 540 nm (Candida albicans; 0.25 mg/ml, 48 h): 0.600
- Growth recorded as absorbance at 540 nm (Candida albicans; 0.25 mg/ml, 72 h): 0.720
- Growth recorded as absorbance at 540 nm (Candida albicans; 0.5 mg/ml, 0 h): 0.240
- Growth recorded as absorbance at 540 nm (Candida albicans; 0.5 mg/ml, 24 h): 0.315
- Growth recorded as absorbance at 540 nm (Candida albicans; 0.5 mg/ml, 48 h): 0.420
- Growth recorded as absorbance at 540 nm (Candida albicans; 0.5 mg/ml, 72 h): 0.730
- Growth recorded as absorbance at 540 nm (Candida albicans; 1.0 mg/ml, 0 h): 0.290
- Growth recorded as absorbance at 540 nm (Candida albicans; 1.0 mg/ml, 24 h): 0.310
- Growth recorded as absorbance at 540 nm (Candida albicans; 1.0 mg/ml, 48 h): 0.450
- Growth recorded as absorbance at 540 nm (Candida albicans; 1.0 mg/ml, 72 h): 0.610
- Growth recorded as absorbance at 540 nm (Candida albicans; 2.0 mg/ml, 0 h): 0.320
- Growth recorded as absorbance at 540 nm (Candida albicans; 2.0 mg/ml, 24 h): 0.470
- Growth recorded as absorbance at 540 nm (Candida albicans; 2.0 mg/ml, 48 h): 0.620
- Growth recorded as absorbance at 540 nm (Candida albicans; 2.0 mg/ml, 72 h): 0.780
- toxicity (CTE) (HeLa [5]; 0.01 mg/ml): 0
- toxicity (CTE) (HeLa [5]; 0.05 mg/ml): 4+ (> 90% of cells showed CTE.)
- toxicity (CTE) (HeLa [5]; 0.1 mg/ml): 4+ (> 90% of cells showed CTE.)
- toxicity (CTE) (HeLa [5]; 0.2 mg/ml): 4+ (> 90% of cells showed CTE.)
- toxicity (CTE) (MA-104 [6]; 0.01 mg/ml): 0
- toxicity (CTE) (MA-104 [6]; 0.05 mg/ml): 4+ (> 90% of cells showed CTE.)
- toxicity (CTE) (MA-104 [6]; 0.1 mg/ml): 4+ (> 90% of cells showed CTE.)
- toxicity (CTE) (MA-104 [6]; 0.2 mg/ml): 4+ (> 90% of cells showed CTE.)
- cytotoxic effect (CTE) (MA-104 [7]; 0.01 mg/ml, 2% fetal calf serum): 0
- cytotoxic effect (CTE) (MA-104 [7]; 0.02 mg/ml, 2% fetal calf serum): 0
- cytotoxic effect (CTE) (MA-104 [7]; 0.03 mg/ml, 2% fetal calf serum): 0
- cytotoxic effect (CTE) (MA-104 [7]; 0.04 mg/ml, 2% fetal calf serum): 0
- effect of serum on cytotoxicity (MA-104 [7]; 2% fetal calf serum vs serum-free, stated for the cells of Table 2): presence of serum reduced the cytotoxicity
- relative sensitivity of MA-104 cells (MA-104 [7]; 2% fetal calf serum, versus HeLa and foreskin fibroblast cells): less sensitive
- relative sensitivity of fungus (Scopulariopsis; Scopulariopsis versus Penicillium): more sensitive
- growth inhibition (Scopulariopsis; all concentrations up to 2.0 mg/ml, five days, room temperature, Scopulariopsis): growth of fungi was inhibited at all concentrations
- sensitivity of growing tips of fungal mycelia (microscopic examination) (Scopulariopsis; stated for the fungal colonies of FIG. 1): growing tips of the fungal mycelia (filaments) are sensitive
- fungistatic nature of effect (Scopulariopsis; stated for the fungi of FIG. 1): fungistatic
- growth inhibition (Mucor): growth was inhibited at all concentrations of docusate sodium tested
- systemic or local concentration on a cellular level [8]: do not provide a systemic or local concentration of from about 0.01 mg to about 0.2 mg of docusate sodium per ml on a cellular level

Compound: C[C@@H]1[C@H](O)[C@@H](C)/C=C/C=C/C=C/C=C/C=C/C=C/C=C/[C@H](O[C@@H]2O[C@H](C)[C@@H](O)[C@H](N)[C@@H]2O)C[C@@H]2O[C@](O)(C[C@@H](O)C[C@@H](O)[C@H](O)CC[C@@H](O)C[C@@H](O)CC(=O)O[C@H]1C)C[C@H](O)[C@H]2C(=O)O [amphotericin B]
- toxicity (mycoses; in vivo): often exhibits some toxicity
- effectiveness against superficial and cutaneous mycoses (mycoses; superficial and cutaneous mycoses): not effective for the treatment of superficial and cutaneous mycoses
- effectiveness against systemic mycoses (mycoses; systemic mycoses): effective for the treatment of many, but not all, systemic mycoses
